The values below come from patent US9133183B2, “Imidazolidinones and analogs exhibiting anti-cancer and anti-proliferative activities” (Deciphera Pharmaceuticals, LLC, priority 2013, dated 2015).

Where two headings read alike, the source gives them in different places.

Test [1] concerns osteoclast precursors. Description: Osteoclast tartrate-resistant acid phosphatase assay. It counts as cell-based. The settings on record: 7-14 days, RANKL and M-CSF.
Test [2] deals with unphosphorylated c-KIT kinase (uKIT, Seq. ID no. 2) (Homo sapiens (Human), UniProt P10721). Description: uKit kinase assay (coupled pyruvate kinase/lactate dehydrogenase). Conditions: enzymatic assay, ATP 2000 μM. It counts as biochemical. The method in brief:
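The read-out was a continuous PK/LDH-coupled decrease in NADH absorbance at 340 nm, monitored at 30 °C over 4 h. IC50 came from % inhibition based on rates at 3–4 h. The GST-tagged unphosphorylated KIT (12 nM) was used with polyE4Y substrate, 2000 μM ATP and 10 mM Mg2+ at pH 7.5, with serially diluted compound.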

For test [3], the system named is M-NFS-60 cells. Description: M-NFS-60 cell proliferation assay (resazurin). It counts as cell-based. The settings on record: 67 h incubation. The method in brief: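 Cells kept in medium containing 20 ng/mL mouse recombinant M-CSF. Fluorescence was read at ex 540/em 600 nm, and IC50 was fitted from percent inhibition across a range of inhibitor concentrations.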
For orientation: Alamar Blue is a resazurin reagent that responds to reducing activity.

Test [4] addresses unphosphorylated c-FMS kinase (uFMS, Seq. ID no. 1) (Homo sapiens (Human), UniProt P07333). Kind of test: uFMS kinase assay (ADP production coupled to pyruvate kinase/lactate dehydrogenase). It counts as biochemical. Conditions: enzymatic assay, ATP 500 μM. The method in brief: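 Unphosphorylated FMS (10 nM) with polyE4Y 1 mg/mL and 500 μM ATP in 90 mM Tris pH 7.5, 10 mM MgCl2, 0.2% octyl-glucoside, 1% DMSO. ADP formation was coupled via pyruvate kinase/LDH to NADH oxidation, followed at A340 for 4 h at 30° C.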

Test [5] addresses unphosphorylated PDGFRβ kinase (uPDGFRβ, Seq. ID No. 3) (Homo sapiens (Human), UniProt P09619). Description: Unphosphorylated PDGFRβ kinase assay (coupled pyruvate kinase/lactate dehydrogenase). Format: biochemical. The settings on record: enzymatic assay, ATP 500 μM. As to the method:
Unphosphorylated PDGFRβ (uPDGFRβ) Kinase (Seq. ID No. 3) Assay
Activity of unphosphorylated PDGFRβ kinase (uPDGFRβ, Seq. ID No. 3) was determined by following the production of ADP from the kinase reaction with ATP and poly E4Y as substrates through coupling with the pyruvate kinase/lactate dehydrogenase system (e.g., Schindler et al. Science (2000) 289: 1938-1942). In this assay, the oxidation of NADH (thus the decrease at A340 nm) was continuously monitored spectrophometrically. The reaction mixture (100 μL) contained PDGFRβ (DeCode, 15.7 nM), polyE4Y (2.5 mg/mL), MgCl2 (10 mM), pyruvate kinase (4 units), lactate dehydrogenase (0.7 units), phosphoenol pyruvate (1 mM) and NADH (0.28 mM) and ATP (500 μM) in a 90 mM Tris buffer containing 0.2% octyl-glucoside and 1% DMSO, at pH 7.5. The inhibition reaction was started by mixing serial diluted test compound with the above reaction mixture. The absorption at 340 nm was monitored continuously for 4 h at 30° C. on a Polarstar Optima or Synergy 2 plate reader. The reaction rate was calculated using the 1.5 to 2.5 h time frame. Percent inhibition was obtained by comparison of reaction rate with that of a control (i.e., with no test compound). IC50 values were calculated from a series of percent inhibition values determined at a range of inhibitor concentrations using software routines as implemented in the GraphPad Prism software package.
uPDGFRβ Kinase Sequence (Residues 557-1106) Used for Screening (Seq ID No. 3)

unphosphorylated c-FMS kinase (uFMS, Seq. ID no. 1), sequence (P07333 538-972): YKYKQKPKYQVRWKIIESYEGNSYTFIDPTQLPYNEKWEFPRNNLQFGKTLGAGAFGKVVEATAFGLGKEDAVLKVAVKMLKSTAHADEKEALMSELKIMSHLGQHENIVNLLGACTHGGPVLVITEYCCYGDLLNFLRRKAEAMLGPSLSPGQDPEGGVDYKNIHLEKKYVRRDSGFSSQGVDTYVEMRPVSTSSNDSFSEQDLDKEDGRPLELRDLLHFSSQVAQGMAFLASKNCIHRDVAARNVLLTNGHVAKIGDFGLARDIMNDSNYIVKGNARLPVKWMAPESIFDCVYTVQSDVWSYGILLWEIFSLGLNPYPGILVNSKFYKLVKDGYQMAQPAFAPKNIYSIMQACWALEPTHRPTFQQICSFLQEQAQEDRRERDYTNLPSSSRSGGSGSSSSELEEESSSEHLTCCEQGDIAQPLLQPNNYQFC
unphosphorylated c-KIT kinase (uKIT, Seq. ID no. 2), sequence (P10721 other isoform, or with tags, fused parts or gaps): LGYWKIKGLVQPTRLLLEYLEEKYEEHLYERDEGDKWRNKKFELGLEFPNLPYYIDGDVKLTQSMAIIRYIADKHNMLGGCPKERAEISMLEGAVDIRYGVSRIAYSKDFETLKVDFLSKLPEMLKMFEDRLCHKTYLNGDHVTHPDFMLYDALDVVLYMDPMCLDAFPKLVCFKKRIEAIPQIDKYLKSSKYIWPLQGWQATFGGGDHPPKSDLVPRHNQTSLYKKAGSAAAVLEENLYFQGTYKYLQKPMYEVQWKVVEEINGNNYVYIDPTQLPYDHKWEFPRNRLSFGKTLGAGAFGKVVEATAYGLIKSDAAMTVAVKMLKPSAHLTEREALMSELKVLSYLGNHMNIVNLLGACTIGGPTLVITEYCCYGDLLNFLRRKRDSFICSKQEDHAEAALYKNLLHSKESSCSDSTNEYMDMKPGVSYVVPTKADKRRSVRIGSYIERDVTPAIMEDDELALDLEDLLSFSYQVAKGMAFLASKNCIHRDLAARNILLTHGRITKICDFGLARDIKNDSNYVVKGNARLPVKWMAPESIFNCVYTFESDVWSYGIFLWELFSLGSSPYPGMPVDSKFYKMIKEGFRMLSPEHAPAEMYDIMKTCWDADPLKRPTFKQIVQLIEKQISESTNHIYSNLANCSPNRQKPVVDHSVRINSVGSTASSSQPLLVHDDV
unphosphorylated PDGFRβ kinase (uPDGFRβ, Seq. ID No. 3), sequence (P09619 557-1106): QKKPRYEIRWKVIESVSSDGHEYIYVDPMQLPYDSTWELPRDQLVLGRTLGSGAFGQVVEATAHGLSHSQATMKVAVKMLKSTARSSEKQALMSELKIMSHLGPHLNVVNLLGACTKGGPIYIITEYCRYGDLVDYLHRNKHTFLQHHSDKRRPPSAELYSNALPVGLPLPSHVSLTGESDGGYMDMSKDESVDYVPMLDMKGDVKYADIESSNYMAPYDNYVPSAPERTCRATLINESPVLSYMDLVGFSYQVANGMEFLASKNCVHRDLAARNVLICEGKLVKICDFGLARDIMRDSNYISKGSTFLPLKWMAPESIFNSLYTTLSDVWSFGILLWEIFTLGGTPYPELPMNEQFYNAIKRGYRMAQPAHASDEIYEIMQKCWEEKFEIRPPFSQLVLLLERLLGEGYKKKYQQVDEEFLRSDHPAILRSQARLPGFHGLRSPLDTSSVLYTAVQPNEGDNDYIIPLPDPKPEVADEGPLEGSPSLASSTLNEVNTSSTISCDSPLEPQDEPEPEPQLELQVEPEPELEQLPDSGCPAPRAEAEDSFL

As to `CC(C)N1CCN(C(=O)Nc2ncc(Oc3ccnc(-c4cnn(C)c4)c3)cn2)C1=O` [Example 2, 3-isopropyl-N-(5-((2-(1-methyl-1H-pyrazol-4-yl)pyridin-4-yl)oxy)pyrimidin-2-yl)-2-oxoimidazolidine-1-carboxamide], the IC50 was below 10 nM in test [1] (Osteoclast); 10 to 100 nM in test [2]; 10 to 100 nM in test [3]; 10 to 100 nM in test [4] (read-out: uFMS); above 1000 nM in test [5].
As to `COC(C)(C)CCN1CCN(C(=O)Nc2ccc(Oc3ccnc(-c4cnn(C)c4)c3)cn2)C1=O` [Example 24, 3-(3-methoxy-3-methylbutyl)-N-(5-((2-(1-methyl-1H-pyrazol-4-yl)pyridin-4-yl)oxy)pyridin-2-yl)-2-oxoimidazolidine-1-carboxamide], the IC50 in test [1] (Osteoclast) lay in the range of 10 to 100 nM; in test [2], 10 to 100 nM; in test [3], 10 to 100 nM; in test [4] (read-out: uFMS), 10 to 100 nM; in test [5], 100 to 1000 nM.
As for `Cc1nc(NC(=O)N2CCN([C@@H]3CCOC3)C2=O)ccc1Oc1ccnc(-c2cnn(C)c2)c1` [Example 28, (R)—N-(6-methyl-5-((2-(1-methyl-1H-pyrazol-4-yl)pyridin-4-yl)oxy)pyridin-2-yl)-2-oxo-3-(tetrahydrofuran-3-yl)imidazolidine-1-carboxamide], the IC50 is below 10 nM in test [1]; 100 to 1000 nM in test [2]; 10 to 100 nM in test [3]; below 10 nM in test [4] (uFMS); above 1000 nM in test [5].
`Cn1cc(-c2cc(Oc3ccc(NC(=O)N4CCN(C5CCCC5)C4=O)nc3)ccn2)cn1` [Example 30, 3-cyclopentyl-N-(5-((2-(1-methyl-1H-pyrazol-4-yl)pyridin-4-yl)oxy)pyridin-2-yl)-2-oxoimidazolidine-1-carboxamide]: the IC50 is below 10 nM in test [1] (Osteoclast); below 10 nM in test [2]; below 10 nM in test [3]; below 10 nM in test [4] (read-out: uFMS); 100 to 1000 nM in test [5].
As to `CN1CCN(C(=O)Nc2ccc(Oc3ccnc(-c4cnn(C)c4)c3)cn2)C1=O` [Example 44, 3-methyl-N-(5-((2-(1-methyl-1H-pyrazol-4-yl)pyridin-4-yl)oxy)pyridin-2-yl)-2-oxoimidazolidine-1-carboxamide], the IC50 is 10 to 100 nM in test [1] (Osteoclast); 100 to 1000 nM in test [2]; 100 to 1000 nM in test [3]; 10 to 100 nM in test [4] (read-out: uFMS); above 1000 nM in test [5].
As for `CCN1CCN(C(=O)Nc2ccc(Oc3ccnc(-c4cnn(C)c4)c3)cn2)C1=O` [Example 45, 3-ethyl-N-(5-((2-(1-methyl-1H-pyrazol-4-yl)pyridin-4-yl)oxy)pyridin-2-yl)-2-oxoimidazolidine-1-carboxamide], the IC50 in test [1] (Osteoclast) was below 10 nM; in test [2] it was 10 to 100 nM; in test [3], 10 to 100 nM; in test [4] (read-out: uFMS), below 10 nM; in test [5] it was above 1000 nM.
In the case of `Cn1cc(-c2cc(Oc3ccc(NC(=O)N4CCN(C5CC5)C4=O)nc3)ccn2)cn1` [Example 46, 3-cyclopropyl-N-(5-((2-(1-methyl-1H-pyrazol-4-yl)pyridin-4-yl)oxy)pyridin-2-yl)-2-oxoimidazolidine-1-carboxamide], the IC50 in test [1] (Osteoclast) is below 10 nM; in test [2] it was 10 to 100 nM; in test [3], 10 to 100 nM; in test [4] (read-out: uFMS), below 10 nM; in test [5], 100 to 1000 nM.
For `Cc1nc(NC(=O)N2CCN(C3CC3)C2=O)ccc1Oc1ccnc(-c2cnn(C)c2)c1` [Example 47, 3-cyclopropyl-N-(6-methyl-5-((2-(1-methyl-1H-pyrazol-4-yl)pyridin-4-yl)oxy)pyridin-2-yl)-2-oxoimidazolidine-1-carboxamide], the IC50 in test [1] (Osteoclast) was below 10 nM; in test [2], 100 to 1000 nM; in test [3], 10 to 100 nM; in test [4] (read-out: uFMS), below 10 nM; in test [5], above 1000 nM.
In the case of `Cn1cc(-c2cc(Oc3ccc(NC(=O)N4CCN(CC(F)(F)F)C4=O)nc3)ccn2)cn1` [Example 48, N-(5-((2-(1-methyl-1H-pyrazol-4-yl)pyridin-4-yl)oxy)pyridin-2-yl)-2-oxo-3-(2,2,2-trifluoroethyl)imidazolidine-1-carboxamide], the IC50 was below 10 nM in test [1] (Osteoclast); below 10 nM in test [2]; 10 to 100 nM in test [3]; below 10 nM in test [4] (read-out: uFMS); 100 to 1000 nM in test [5].
`Cn1cc(-c2cc(Oc3ccc(NC(=O)N4CCN(C5COC5)C4=O)nc3)ccn2)cn1` [Example 50, N-(5-((2-(1-methyl-1H-pyrazol-4-yl)pyridin-4-yl)oxy)pyridin-2-yl)-3-(oxetan-3-yl)-2-oxoimidazolidine-1-carboxamide]: the IC50 in test [1] (Osteoclast) is 10 to 100 nM; in test [2], 10 to 100 nM; in test [3], 10 to 100 nM; in test [4] (read-out: uFMS), 10 to 100 nM; in test [5], above 1000 nM.
In the case of `Cc1cc(-c2cc(Oc3ccc(NC(=O)N4CCN(C5CCOCC5)C4=O)nc3)ccn2)ccn1` [Example 51, N-(5-((2′-methyl-[2,4′-bipyridin]-4-yl)oxy)pyridin-2-yl)-2-oxo-3-(tetrahydro-2H-pyran-4-yl)imidazolidine-1-carboxamide], the IC50 in test [1] (Osteoclast) is 100 to 1000 nM; in test [2] it was 10 to 100 nM; in test [3] it was 10 to 100 nM; in test [4] (read-out: uFMS), 10 to 100 nM; in test [5] it was above 1000 nM.
Regarding `Cc1ccc(-c2cc(Oc3ccc(NC(=O)N4CCN(CC(F)(F)F)C4=O)nc3C)ccn2)cn1` [Example 53, N-(6-methyl-5-((6′-methyl-[2,3′-bipyridin]-4-yl)oxy)pyridin-2-yl)-2-oxo-3-(2,2,2-trifluoroethyl)imidazolidine-1-carboxamide], the IC50 in test [1] (Osteoclast) was 100 to 1000 nM; in test [2] it was above 1000 nM; in test [3], 10 to 100 nM; in test [4] (read-out: uFMS), 10 to 100 nM; in test [5], above 1000 nM.
Turning to `Cn1cc(-c2cc(Oc3ccc(NC(=O)N4CCN(CC#N)C4=O)nc3)ccn2)cn1` [Example 55, 3-(cyanomethyl)-N-(5-((2-(1-methyl-1H-pyrazol-4-yl)pyridin-4-yl)oxy)pyridin-2-yl)-2-oxoimidazolidine-1-carboxamide], the IC50 in test [1] (Osteoclast) was 100 to 1000 nM; in test [2], above 1000 nM; in test [3] it was 100 to 1000 nM; in test [4] (read-out: uFMS) it was 100 to 1000 nM; in test [5] it was above 1000 nM.
For the molecule `COC[C@@H](C)N1CCN(C(=O)Nc2ccc(Oc3ccnc(-c4cnn(C)c4)c3)cn2)C1=O` [Example 59, (R)-3-(1-methoxypropan-2-yl)-N-(5-((2-(1-methyl-1H-pyrazol-4-yl)pyridin-4-yl)oxy)pyridin-2-yl)-2-oxoimidazolidine-1-carboxamide], the IC50 in test [1] (Osteoclast) was below 10 nM; in test [2] it was 10 to 100 nM; in test [3], below 10 nM; in test [4] (read-out: uFMS), below 10 nM; in test [5], 100 to 1000 nM.
Regarding `Cc1ncc(-c2cc(Oc3ccc(NC(=O)N4CCN(C5CCOCC5)C4=O)nc3)ccn2)s1` [Example 60, N-(5-((2-(2-methylthiazol-5-yl)pyridin-4-yl)oxy)pyridin-2-yl)-2-oxo-3-(tetrahydro-2H-pyran-4-yl)imidazolidine-1-carboxamide], the IC50 fell in the range of 10 to 100 nM in test [1] (Osteoclast); 10 to 100 nM in test [2]; 10 to 100 nM in test [3]; 10 to 100 nM in test [4] (read-out: uFMS); 100 to 1000 nM in test [5].
Turning to `Cn1cc(-c2cc(Oc3cc(F)c(NC(=O)N4CCN(CC(O)C(C)(C)C)C4=O)cc3Cl)ccn2)cn1` (stereo not shown) [Example 112, N-(5-chloro-2-fluoro-4-((2-(1-methyl-1H-pyrazol-4-yl)pyridin-4-yl)oxy)phenyl)-3-(2-hydroxy-3,3-dimethylbutyl)-2-oxoimidazolidine-1-carboxamide], the IC50 lay in the range of 10 to 100 nM in test [2], 100 to 1000 nM in test [3], 10 to 100 nM in test [4] (read-out: uFMS) and 100 to 1000 nM in test [5].
